15 molecules from ChEMBL document CHEMBL1135625, “Synthesis and antiinflammatory evaluation of 9-anilinoacridine and 9-phenoxyacridine derivatives” (J Med Chem, 2002) can be followed below.

For assay [1], the species on record is Rattus norvegicus. Kind of assay: Inhibitory activity against mast cell degranulation by measuring the content of histamine in the supernatant. It is filed as functional.
The test system of assay [2] is RAW264.7. Kind of assay: 50% inhibition against TNF-alpha release in RAW 264.7 cells in the supernatant. The format is functional, cell-based. Conditions: Mus musculus.
Assay [3] is filed under the species Rattus norvegicus. Briefly: Inhibitory activity against neutrophil degranulation by measuring the content of lysozyme in the supernatant. It is filed as functional.
The species named for assay [4] is Rattus norvegicus. Briefly: % inhibition against neutrophil degranulation by measuring the content of lysozyme in the supernatant. It is filed as functional. On the set-up: concentration or dose not given beside the values.
The species named for assay [5] is Rattus norvegicus. Kind of assay: % inhibition against neutrophil degranulation by measuring the content of beta-glucuronidase in the supernatant. The format is functional. Set-up: concentration or dose not given beside the values.
Assay [6] is filed under the species Rattus norvegicus. Kind of assay: 50% inhibition against mast cell degranulation by measuring the content of beta-glucuronidase in the supernatant. The format is functional.
Assay [7] deals with N9. Kind of assay: 50% inhibition against TNF-alpha release in N9 cells in the supernatant. It is filed as functional, cell-based. Conditions: Mus musculus.
In assay [8] the test system is RAW264.7. Briefly: % inhibition against TNF-alpha release in RAW 264.7 cells in the supernatant. It is filed as functional, Mus musculus. On the set-up: concentration or dose not given beside the values.
Assay [9] has as its system N9. Briefly: % inhibition against TNF-alpha release in N9 cells in the supernatant. The format is functional, Mus musculus. On the set-up: concentration or dose not given beside the values.
For assay [10], the species on record is Rattus norvegicus. Kind of assay: Inhibitory activity against neutrophil degranulation by measuring the content of beta-glucuronidase in the supernatant. It is filed as functional.
The species entered for assay [11] is Rattus norvegicus. Kind of assay: % inhibition against mast cell degranulation by measuring the content of beta-glucuronidase in the supernatant. It is filed as functional. Set-up: concentration or dose not given beside the values.
For assay [12], the system named is RAW264.7. Kind of assay: (§1) Inhibitory activity against TNF-alpha release in RAW 264.7 cells in the supernatant. It is filed as functional, cell-based. Conditions: Mus musculus.
The subject of assay [13] is N9. Briefly: (§2) Inhibitory activity against TNF-alpha release in N9 cells in the supernatant. It is filed as functional, cell-based, Mus musculus.
The species entered for assay [14] is Rattus norvegicus. Kind of assay: % inhibition against mast cell degranulation by measuring the content of histamine in the supernatant. It is filed as functional. On the set-up: concentration or dose not given beside the values.
The species named for assay [15] is Rattus norvegicus. Kind of assay: Inhibitory activity against mast cell degranulation by measuring the content of beta-glucuronidase in the supernatant. It is filed as functional.
Assay [16] concerns RAW264.7. The assay is described as §1. It is filed as functional, Mus musculus.
Assay [17] relates to N9. The description is as §2. It is filed as functional, Mus musculus.
The species entered for assay [18] is Rattus norvegicus. Kind of assay: % inhibition against mast cell degranulation by measuring the content of beta-glucuronidase in the supernatant. Conditions: concentration not given here.

Each structure is given as a SMILES string.

The IC50 is the concentration that gives 50% inhibition. The term Inhibition denotes the change of the read-out against control, counted positive when it falls. Regarding `CO/N=C(\C)c1ccc(Nc2c3ccccc3nc3ccccc23)cc1`, the 50% inhibitory concentration (IC50) was 20.8 µM in the assay listed under Rattus norvegicus [1]; more than 30 µM in the assay on RAW264.7 [2]; more than 30 µM in the assay filed under Rattus norvegicus [3]; 21 µM in the assay listed under Rattus norvegicus [6]; more than 3 µM with N9 [7]; more than 30 µM in the assay listed under Rattus norvegicus [10]. Besides, the Inhibition is 15.4% in the assay filed under Rattus norvegicus [4], 46.9% in the assay filed under Rattus norvegicus [5], 7.2% in the assay on RAW264.7 [8] and 39.3% in the assay with N9 [9].
`CC(=O)c1ccc(Oc2c3ccccc3nc3ccc(Cl)cc23)cc1`: the 50% inhibitory concentration (IC50) in the assay listed under Rattus norvegicus [1], in the assay listed under Rattus norvegicus [3], in the assay on RAW264.7 [12], with N9 [13], in the assay filed under Rattus norvegicus [15] and in the assay filed under Rattus norvegicus [10] was more than 30 µM each time. Besides, the Inhibition in the assay filed under Rattus norvegicus [4] was -16.4%; in the assay listed under Rattus norvegicus [5] it was 14.8%; in the assay on RAW264.7 [8], 4.6%; in the assay listed under Rattus norvegicus [11], 29.4%; in the assay listed under Rattus norvegicus [14], 14.4%; in the assay on N9 [9], 12.3%.
On to `COc1cccc2c(Oc3ccc(C(C)=O)cc3)c3ccccc3nc12`, for which the IC50 in the assay listed under Rattus norvegicus [1] was 16 µM; in the assay filed under Rattus norvegicus [3] it was 21.3 µM; in the assay listed under Rattus norvegicus [6], 19.5 µM; in the assay with RAW264.7 [12], more than 30 µM; in the assay with N9 [13] it was more than 10 µM; in the assay listed under Rattus norvegicus [10], more than 30 µM. Also, the Inhibition is given as 35.2% in the assay listed under Rattus norvegicus [5], 34.3% in the assay on RAW264.7 [8] and 19.7% in the assay with N9 [9].
As to `CCN(CC)CCCC(C)Nc1c2ccc(Cl)cc2nc2ccc(OC)cc12` (stereo not drawn) [QUINACRINE], the IC50 in the assay filed under Rattus norvegicus [1] was 31.2 µM; in the assay listed under Rattus norvegicus [15] it was 28.8 µM.
Take `C/C(=N\O)c1ccc(Nc2c3ccccc3nc3ccccc23)cc1`: the IC50 is more than 30 µM in the assay filed under Rattus norvegicus [1]; more than 10 µM with RAW264.7 [2]; 8.2 µM in the assay listed under Rattus norvegicus [3]; more than 3 µM in the assay with N9 [7]; more than 30 µM in the assay listed under Rattus norvegicus [15]; 4.4 µM in the assay listed under Rattus norvegicus [10]. The Inhibition in the assay on RAW264.7 [8] is 44.9%; in the assay listed under Rattus norvegicus [11] it was 29.5%; in the assay filed under Rattus norvegicus [14], 23.3%; in the assay on N9 [9], 40.1%.
On to `CN1CCN(CCCN2c3ccccc3Sc3ccc(C(F)(F)F)cc32)CC1` [TRIFLUOPERAZINE], for which the half-maximal inhibitory concentration (IC50) in the assay listed under Rattus norvegicus [1] amounted to 10.1 µM; in the assay filed under Rattus norvegicus [15], 12.8 µM.
As for `O=Cc1ccc(Oc2c3ccccc3nc3ccccc23)cc1`, the Inhibition is 17.2% with RAW264.7 [16], 19.9% in the assay with N9 [17], 44.8% in the assay listed under Rattus norvegicus [4] and 49.9% in the assay listed under Rattus norvegicus [5]. Also, the half-inhibitory concentration (IC50) is 21.5 µM in the assay listed under Rattus norvegicus [1]; more than 30 µM in the assay filed under Rattus norvegicus [3]; 20.7 µM in the assay listed under Rattus norvegicus [6]; more than 3 µM in the assay with N9 [7]; more than 30 µM in the assay with RAW264.7 [12]; more than 30 µM in the assay listed under Rattus norvegicus [10].
`CC(=O)c1ccc(Oc2c3c(nc4ccccc24)CCCC3)cc1`: the IC50 in the assay filed under Rattus norvegicus [1] is more than 30 µM; in the assay filed under Rattus norvegicus [3] it was more than 30 µM; in the assay on RAW264.7 [12], more than 30 µM; in the assay on N9 [13], more than 3 µM; in the assay filed under Rattus norvegicus [15], more than 30 µM; in the assay listed under Rattus norvegicus [10], more than 30 µM. In addition, the Inhibition in the assay listed under Rattus norvegicus [4] was 32.4%; in the assay listed under Rattus norvegicus [5], 42.1%; in the assay with RAW264.7 [8] it was 48.9%; in the assay listed under Rattus norvegicus [11], 13.3%; in the assay listed under Rattus norvegicus [14], 5.7%; in the assay on N9 [9], -3.5%.
For the molecule `CC(=O)/C=C/c1ccc(Oc2c3ccccc3nc3ccccc23)cc1`, the IC50 in the assay filed under Rattus norvegicus [1] is more than 30 µM; in the assay listed under Rattus norvegicus [3], more than 30 µM; with RAW264.7 [12], more than 30 µM; in the assay with N9 [13], 8.7 µM; in the assay filed under Rattus norvegicus [15] it was more than 30 µM; in the assay filed under Rattus norvegicus [10] it was more than 30 µM. Moreover, the Inhibition in the assay filed under Rattus norvegicus [4] is listed as 10.3%; in the assay filed under Rattus norvegicus [5], 32.4%; with RAW264.7 [8], -15.7%; in the assay filed under Rattus norvegicus [11], 7.7%; in the assay filed under Rattus norvegicus [14], -10.5%.
As to `CC(=O)COc1ccc(Nc2c3ccccc3nc3ccccc23)cc1`, the IC50 in the assay filed under Rattus norvegicus [1] is more than 30 µM; in the assay on RAW264.7 [2] it was 8.2 µM; in the assay filed under Rattus norvegicus [3] it was more than 30 µM; in the assay on N9 [7], more than 1 µM; in the assay listed under Rattus norvegicus [15] it was more than 30 µM; in the assay listed under Rattus norvegicus [10] it was more than 30 µM. The Inhibition in the assay filed under Rattus norvegicus [4] was 21.6%; in the assay filed under Rattus norvegicus [5], 35.8%; in the assay filed under Rattus norvegicus [11] it was 1.3%; in the assay listed under Rattus norvegicus [14], 19.2%; with N9 [9], 6.6%.
In the case of `COc1ccc2nc3cc(Cl)ccc3c(Oc3ccc(C(C)=O)cc3)c2c1`, the concentration for half-maximal inhibition (IC50) in the assay listed under Rattus norvegicus [1] was more than 30 µM; in the assay listed under Rattus norvegicus [3] it was more than 30 µM; in the assay with RAW264.7 [12], more than 30 µM; with N9 [13] it was more than 10 µM; in the assay filed under Rattus norvegicus [15], more than 30 µM; in the assay listed under Rattus norvegicus [10], more than 30 µM. Further, the Inhibition in the assay listed under Rattus norvegicus [4] is recorded as -12.8%; in the assay listed under Rattus norvegicus [5], 10.4%; in the assay with RAW264.7 [8] it was 33.1%; in the assay filed under Rattus norvegicus [11] it was 26.4%; in the assay listed under Rattus norvegicus [14] it was 7.2%; with N9 [9], 45.9%.
One may read the inhibition as the drop in the measured response relative to a control, in per cent. With `COc1ccc2nc3ccccc3c(Oc3ccc(C(C)=O)cc3)c2c1`, the IC50 is more than 30 µM in the assay listed under Rattus norvegicus [1]; 18.3 µM in the assay filed under Rattus norvegicus [3]; 19.3 µM with RAW264.7 [12]; more than 3 µM in the assay with N9 [13]; more than 30 µM in the assay listed under Rattus norvegicus [15]; 12.9 µM in the assay listed under Rattus norvegicus [10]. Moreover, the inhibition in the assay filed under Rattus norvegicus [18] is 25%. Besides, the results for the Inhibition in the assay filed under Rattus norvegicus [14] and in the assay on N9 [9] were 9.4% and 36.1%, respectively.
`C[C@@H]1C[C@H]2[C@@H]3CCC4=CC(=O)C=C[C@]4(C)[C@@]3(F)[C@@H](O)C[C@]2(C)[C@@]1(O)C(=O)CO` [DEXAMETHASONE]: the IC50 in the assay on RAW264.7 [12] turned out to be 0.42 µM; in the assay on N9 [13], 0.074 µM.
In the case of `CC(=O)c1ccc(Oc2c3ccccc3nc3ccccc23)cc1`, the IC50 in the assay filed under Rattus norvegicus [1] was more than 30 µM; in the assay listed under Rattus norvegicus [3], 18.7 µM; with RAW264.7 [12], more than 30 µM; in the assay with N9 [13], more than 3 µM; in the assay listed under Rattus norvegicus [15], more than 30 µM; in the assay listed under Rattus norvegicus [10], more than 30 µM. Further, the Inhibition in the assay filed under Rattus norvegicus [5] was 42%; in the assay with RAW264.7 [8], 45.6%; in the assay filed under Rattus norvegicus [11] it was 44.6%; in the assay listed under Rattus norvegicus [14] it was 43.8%; in the assay with N9 [9], 23.9%.
For the molecule `CC(=O)c1ccc(Nc2c3ccccc3nc3ccccc23)cc1`, the IC50 was more than 30 µM in the assay listed under Rattus norvegicus [1]; more than 10 µM in the assay with RAW264.7 [2]; 23.7 µM in the assay listed under Rattus norvegicus [3]; 0.8 µM with N9 [7]; more than 30 µM in the assay listed under Rattus norvegicus [15]; more than 30 µM in the assay filed under Rattus norvegicus [10]. Besides, the Inhibition turned out to be 26.7% in the assay listed under Rattus norvegicus [5], 47.2% with RAW264.7 [8], 34.7% in the assay filed under Rattus norvegicus [11] and 15.7% in the assay listed under Rattus norvegicus [14].
